Measured values published in patent publication EP0047496A1, “Sulfonyl ureas, processes for their production, pharmaceutical compositions based on these compounds and their use” (HOECHST AKTIENGESELLSCHAFT, priority 1980, dated 1982).

Test system: Kaninchen
Assay: Blood sugar lowering after oral administration to rabbits (autoanalyzer)
Type: in vivo
Conditions: 0,4 mg/kg oral, nach 6 Stunden
Experimental: Die blutzuckersenkende Wirkung der erfindungsgemäßen Benzolsulfonylharnstoffe kann dadurch festgestellt werden, daß man sie als freie Verbindungen oder in Form der Natriumsalze an normal ernährte Kaninchen verfüttert und den Blutzuckerwert nach der bekannten Methode von Hagedorn-Jensen oder mit einem Autoanalyzer über eine längere Zeitdauer ermittelt.
Die routinemäßige Bestimmung der blutzuckersenkenden Wirkung kann mit Dosierungen von z.B. 10,2 oder 0,4 mg oder mit noch geringeren Mengen Wirksubstanz pro kg Versuchstier nach bekannten Methoden erfolgen.
Die folgenden Verbindungen I bis V wurden in Dosierungen von 2 mg/kg Kaninchen oral verabreicht und die Blutzuckerwerte wurden mit einem Autoanalyzer über eine Zeitdauer von 24 Stunden ermittelt. Die hierbei gemessene Blutzuckersenkung ist in der nachfolgenden Tabelle in % nach ... Stunden angegeben. • I N-(4-<2-(N'-<5-Chlor-2-methoxy-benzoyl>-ureido)-äthyl>- benzolsulfonyl)-N'-cyclohexyl-harnstoff • II N-(4-<2-(N'-<5-Chlor-2-methoxy-benzoyl>-ureido)-äthyl>- benzolsulfonyl)-N'-butyl-harnsotff • III N-(4-<2-(N'-<5-Chlor-2-methoxy-benzoyl>-ureido)-äthyl>- benzolsulfonyl)-N'-cyclopentyl-harnstoff • IV N-(4-<2-(N'-<2-Methoxy-5-methyl-benzoyl)-ureido)-äthyl>- benzolsulfonyl)-N'-cyclohexyl-harnstoff • V N-(4-<2-(N'-<2-Methoxy-5-methyl-benzoyl>-ureido)-äthyl>- benzolsulfonyl)-N'-(4-methyl-cyclohexyl)-harnstoff [formula]
Die Verbindungen I, IV und V wurden in Dosierungen von 0,4 mg/kg oral an Kaninchen verabreicht und die Blutzuckersenkung gemessen. Sie betrug nach 6 Stunden 40 % (Verbindung I), 41 % (Verbindung IV) und 33 % (Verbindung V).

| Structure (SMILES) | Blutzuckersenkung [%] |
| --- | --- |
| COc1ccc(C)cc1C(=O)NC(=O)NCCc1ccc(S(=O)(=O)NC(=O)NC2CCC(C)CC2)cc1 (stereo not drawn) [Verbindung V, N-(4-<2-(N'-<2-Methoxy-5-methyl-benzoyl>-ureido)-äthyl>- benzolsulfonyl)-N'-(4-methyl-cyclohexyl)-harnstoff] | 33 |
| COc1ccc(Cl)cc1C(=O)NC(=O)NCCc1ccc(S(=O)(=O)NC(=O)NC2CCCCC2)cc1 [Verbindung I, N-(4-<2-(N'-<5-Chlor-2-methoxy-benzoyl>-ureido)-äthyl>- benzolsulfonyl)-N'-cyclohexyl-harnstoff] | 40 |
| COc1ccc(C)cc1C(=O)NC(=O)NCCc1ccc(S(=O)(=O)NC(=O)NC2CCCCC2)cc1 [Verbindung IV] | 41 |
